Laboratory results as given in patent US10563263B2, “Genetic polymorphisms associated with statin response and cardiovascular diseases, methods of detection and uses thereof” (CELERA CORPORATION, priority 2010, dated 2020).

Tests used:
CHD or CVD = experiment: WOSCOPS: SNP by pravastatin treatment interaction, logistic regression (synergy index), cohort source; End-point (CHD or CVD) of the marker not given; assay type: in vivo, human
recurrent MI = experiment: CARE: CHD statin response (recurrent MI) by SNP genotype, hazard ratio pravastatin vs placebo (Table 22); assay type: in vivo, human; details: rs873134 (hCV2652047), ref = placebo
From the text: (§1) In the analysis for which the results are provided in Table 22, the endpoint was recurrent MI, and the analysis was adjusted for age, gender, hypertension, diabetes, base LDL and HDL, and whether an individual was a current smoker.
In Tables 20-22, certain columns are labeled “RESP”, “PLACEBO, OR “ALL”. “RESP” is for statin response as measured by comparing risk (risk for stroke, including TIA, in Tables 20-21, and risk for CHD, specifically recurrent MI, in Table 22) in the pravastatin-treated group with risk in the placebo-treated group, “PLACEBO” is the placebo-treated group, and “ALL” is the combination of the placebo-treated group and the pravastatin-treated group. “RESP” is the analysis to assess statin response in the indicated genotype group.
“EVENTS” indicates the total number of events (stroke or TIA for Tables 20-21, and recurrent MI for Table 22) in individuals with the indicated genotype.
“HR” indicates the hazard ratio.
CARE was a secondary prevention trial and WOSCOPS was a primary prevention trial.
as §1, with “Thus, SNP rs873134 is an example of a SNP that is associated with statin response for reducing risk for both stroke and CHD. In” for “In”

Question: `CC[C@H](C)C(=O)O[C@H]1C[C@H](O)C=C2C=C[C@H](C)[C@H](CC[C@@H](O)C[C@@H](O)CC(=O)O)[C@H]21` [Pravastatin, pravastatin] was tested. Which OR (CHD or CVD; marker rs1068705, pravastatin vs placebo) did it give?
Answer: 0.74

Question: And the OR (CHD or CVD; marker rs1564078, pravastatin vs placebo)?
Answer: 0.79

Question: And the OR (CHD or CVD; marker rs9557509, pravastatin vs placebo)?
Answer: 1.42

Question: And the OR (CHD or CVD; marker rs10802865, pravastatin vs placebo)?
Answer: 1.16

Question: And the OR (CHD or CVD; marker rs11668038, pravastatin vs placebo)?
Answer: 1.25

Question: And the OR (CHD or CVD; marker rs17035071, pravastatin vs placebo)?
Answer: 1.22

Question: And the “HR_RESP (hazard ratio pravastatin vs placebo, CHD)” value (recurrent MI; MODE DOM, genotype TC + TT)?
Answer: 0.85

Question: What about the “HR_RESP (hazard ratio pravastatin vs placebo, CHD)” value (recurrent MI; MODE GEN, genotype CC) of the same compound?
Answer: 0.48

Question: And the “HR_RESP (hazard ratio pravastatin vs placebo, CHD)” value (recurrent MI; MODE GEN, genotype TC)?
Answer: 1

Question: And the “HR_RESP (hazard ratio pravastatin vs placebo, CHD)” value (recurrent MI; MODE GEN, genotype TT)?
Answer: 0.57
